Experimental data: ChEMBL document CHEMBL1201862, “PubChem BioAssay data set” (2004)
Activity calls are given as the source filed them.

Legend:
BJ [1] = experiment: BJ-TERT fibroblast viability loss – cell-based, RAS-independent, luminescence, dose response (AID 1933); assay type: functional; details: Homo sapiens
BJ [2] = experiment: cells; assay type: functional, cell-based; details: Homo sapiens
BJ [3] = experiment: BJ-TERT-LT-ST fibroblast viability loss – cell-based, RAS-independent, luminescence, dose response (AID 1935); assay type: functional; details: Homo sapiens;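 note: BJ fibroblasts immortalized with TERT plus LT and ST oncogenes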
[4] = DRD fibroblast viability loss – cell-based, non-viral oncogenic, luminescence, dose response (AID 1934); assay type: functional; details: Homo sapiens
Bcl-2-related protein A1 = target: T1, Bcl-2-related protein A1 (Mus musculus, UniProt Q07440); assay type: functional;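 note: confirmatory dose–response counterscreen on Bfl-1, used to check hits from a UBC13 polyubiquitin inhibitor campaign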
T1 sequence (Q07440 whole entry): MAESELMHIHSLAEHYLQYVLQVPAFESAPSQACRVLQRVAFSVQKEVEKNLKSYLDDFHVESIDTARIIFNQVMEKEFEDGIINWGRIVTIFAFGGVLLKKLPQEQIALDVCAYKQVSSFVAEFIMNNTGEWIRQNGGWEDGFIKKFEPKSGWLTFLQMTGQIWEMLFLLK

[5] = target: T2, Ubiquitin-conjugating enzyme E2 N (Homo sapiens, UniProt P61088); assay type: functional
T2 sequence (P61088 whole entry): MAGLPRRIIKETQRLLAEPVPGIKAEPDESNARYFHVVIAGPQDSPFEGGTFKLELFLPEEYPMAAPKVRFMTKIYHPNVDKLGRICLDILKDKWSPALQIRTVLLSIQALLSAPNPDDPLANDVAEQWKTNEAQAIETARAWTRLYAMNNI

[6] = target: T2, Ubiquitin-conjugating enzyme E2 N; assay type: functional; remark: listed apart in the source
[7] = target: T3, Type-1 angiotensin II receptor (Homo sapiens, UniProt P30556); experiment: agonist activity at AGTR1 – cell-based, uHTS hits, selectivity assay for APJ receptor agonist project, dose response (AID 488865); assay type: functional;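 note: beta-arrestin recruitment to AT1 measured by enzyme fragment complementation luminescence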
T3 sequence (P30556 whole entry): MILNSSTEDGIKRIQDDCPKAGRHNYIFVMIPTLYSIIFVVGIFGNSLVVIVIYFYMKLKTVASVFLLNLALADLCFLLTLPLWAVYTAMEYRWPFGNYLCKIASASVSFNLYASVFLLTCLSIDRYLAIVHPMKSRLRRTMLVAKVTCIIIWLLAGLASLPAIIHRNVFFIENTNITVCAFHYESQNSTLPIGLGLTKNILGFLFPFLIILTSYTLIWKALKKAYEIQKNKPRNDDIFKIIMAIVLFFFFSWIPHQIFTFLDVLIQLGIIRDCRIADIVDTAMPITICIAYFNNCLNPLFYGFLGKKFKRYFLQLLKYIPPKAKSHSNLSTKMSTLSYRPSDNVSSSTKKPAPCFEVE

[8] = target: T4, Heat shock factor protein 1 (Mus musculus, UniProt P38532); experiment: decrease of HSF1-responsive luciferase luminescence – cell-based, NIH3T3, dose retest, confirmation (AID 2382); assay type: functional;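 note: NIH3T3 fibroblasts with HSF1-driven luciferase reporter stressed by proteasome inhibitor MG132; luminescence from HSF1-driven luciferase expression after 8 hours of MG132 stress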
T4 sequence (P38532 whole entry): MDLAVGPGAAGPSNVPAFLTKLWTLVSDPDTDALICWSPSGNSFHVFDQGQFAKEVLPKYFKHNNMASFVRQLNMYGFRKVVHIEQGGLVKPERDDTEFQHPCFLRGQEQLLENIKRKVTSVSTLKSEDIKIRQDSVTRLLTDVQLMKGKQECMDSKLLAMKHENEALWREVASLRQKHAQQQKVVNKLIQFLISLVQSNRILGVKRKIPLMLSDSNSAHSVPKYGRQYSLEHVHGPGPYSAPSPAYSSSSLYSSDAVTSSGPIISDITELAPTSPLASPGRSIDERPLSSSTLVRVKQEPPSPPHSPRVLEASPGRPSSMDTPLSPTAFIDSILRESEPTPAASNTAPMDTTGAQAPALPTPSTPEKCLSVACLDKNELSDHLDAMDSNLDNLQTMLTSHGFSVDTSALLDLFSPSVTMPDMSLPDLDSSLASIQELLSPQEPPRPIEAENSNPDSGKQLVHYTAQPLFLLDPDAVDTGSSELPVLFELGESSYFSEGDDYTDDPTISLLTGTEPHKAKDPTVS

[9] = viability of PTEN-deleted HCT116 cells – cell-based, HCT116 PTEN knockout, dose response (AID 1047); assay type: functional;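 note: HCT116 colon tumor cells with PTEN knocked out; cells exposed to compound for 60 hours before readout; potency for loss of cell viability measured by luminescence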
[10] = viability of HCT116 lacking mutant beta-catenin – cell-based, human colon tumor, dose response (AID 1045); assay type: functional;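 note: HCT116 colon tumor cells with beta catenin knocked out; cells exposed to compound for 60 hours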
[11] = target: Glutathione S-transferase omega-1 (Homo sapiens, UniProt P78417); experiment: IC50 of human GSTO1 inhibition by gel ABPP – biochemical, SE-Rh probe, in-gel fluorescence, powder samples, late-stage follow-up (AID 463081); assay type: functional
Sequence of Glutathione S-transferase omega-1 (P78417 whole entry): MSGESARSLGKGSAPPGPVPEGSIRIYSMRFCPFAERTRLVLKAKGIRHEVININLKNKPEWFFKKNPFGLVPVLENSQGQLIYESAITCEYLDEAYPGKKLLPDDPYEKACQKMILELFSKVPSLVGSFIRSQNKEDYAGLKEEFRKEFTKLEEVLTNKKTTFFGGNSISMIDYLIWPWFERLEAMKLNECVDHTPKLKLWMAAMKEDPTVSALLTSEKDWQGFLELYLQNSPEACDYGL

BJ [12] = experiment: growth inhibition of engineered Ras-driven BJ cells – cell-based, alamar blue fluorescence, cherrypicked samples, dose response (AID 2631); assay type: functional; details: Homo sapiens;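 note: confirmatory dose-response assay in RAS-dependent BJ fibroblasts engineered with TERT, LT and ST, with cytotoxicity read by fluorescence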
Protein RecA = target: T5, Protein RecA (Mycobacterium tuberculosis, UniProt P9WHJ3); experiment: Fluorescence Cell-Free Homogeneous Dose Retest to Identify Inhibitors of RecA-Intein Splicing Activity. [Related pubchem assays (depositor defined):AID2097, AID2223, AID489010, AID492950]; assay type: functional
T5 sequence (P9WHJ3 whole entry): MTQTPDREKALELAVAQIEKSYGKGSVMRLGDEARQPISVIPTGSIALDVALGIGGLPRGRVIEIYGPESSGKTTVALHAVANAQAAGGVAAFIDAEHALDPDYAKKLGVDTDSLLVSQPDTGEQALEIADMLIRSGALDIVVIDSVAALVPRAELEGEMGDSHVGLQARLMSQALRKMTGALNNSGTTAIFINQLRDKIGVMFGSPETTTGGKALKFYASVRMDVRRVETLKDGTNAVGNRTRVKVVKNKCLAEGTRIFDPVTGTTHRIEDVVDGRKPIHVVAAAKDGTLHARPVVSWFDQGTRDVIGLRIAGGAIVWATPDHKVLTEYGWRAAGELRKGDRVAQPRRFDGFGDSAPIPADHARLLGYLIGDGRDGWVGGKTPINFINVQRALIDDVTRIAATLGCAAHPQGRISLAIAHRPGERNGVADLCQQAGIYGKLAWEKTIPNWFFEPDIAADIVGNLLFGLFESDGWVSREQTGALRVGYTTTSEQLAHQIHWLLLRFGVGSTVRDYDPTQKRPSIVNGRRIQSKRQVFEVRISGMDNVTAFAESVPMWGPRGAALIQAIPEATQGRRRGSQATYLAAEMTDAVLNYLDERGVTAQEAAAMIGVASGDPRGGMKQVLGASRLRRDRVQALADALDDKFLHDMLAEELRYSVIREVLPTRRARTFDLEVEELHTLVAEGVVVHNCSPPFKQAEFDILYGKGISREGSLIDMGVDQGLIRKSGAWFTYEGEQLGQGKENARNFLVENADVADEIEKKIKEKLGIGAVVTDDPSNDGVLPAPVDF

Paired box protein Pax-8 = Paired box protein Pax-8 (Homo sapiens, UniProt Q06710); experiment: PAX8 transcriptional activity inhibition in RMG-I – RMG-I cells, luciferase, cherry-pick, dose response (AID 687027); assay type: functional, cell-based;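 note: luciferase reporter driven by Pax8 target thyroperoxidase promoter measured by SteadyGlo luminescence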
Sequence of Paired box protein Pax-8 (Q06710 whole entry): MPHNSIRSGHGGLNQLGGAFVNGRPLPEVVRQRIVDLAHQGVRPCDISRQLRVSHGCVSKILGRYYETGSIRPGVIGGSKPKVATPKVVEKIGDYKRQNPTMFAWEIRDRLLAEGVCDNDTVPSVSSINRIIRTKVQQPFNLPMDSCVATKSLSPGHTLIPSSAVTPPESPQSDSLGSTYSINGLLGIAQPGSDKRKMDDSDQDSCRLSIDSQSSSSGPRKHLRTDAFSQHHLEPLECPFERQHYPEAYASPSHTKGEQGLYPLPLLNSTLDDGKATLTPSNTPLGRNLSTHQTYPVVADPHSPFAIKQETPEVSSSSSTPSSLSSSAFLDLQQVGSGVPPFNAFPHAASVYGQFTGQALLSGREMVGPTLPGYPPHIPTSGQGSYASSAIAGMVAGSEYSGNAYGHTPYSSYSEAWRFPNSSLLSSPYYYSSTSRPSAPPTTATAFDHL

[13] = general cell-killing toxicity readout – plate reader, dry powder samples, cytotoxicity control for PAX8 inhibitor project, dose response (AID 743021); assay type: functional, cell-based
[14] = target: T6, Microphthalmia-associated transcription factor (Homo sapiens, UniProt O75030); experiment: MITF Measured in Cell-Based System Using Plate Reader - 2084-01_Inhibitor_DoseNoFile_CherryPick_Activity_Set2. [Related pubchem assays (depositor defined):AID488944]; assay type: functional
T6 sequence (O75030 whole entry): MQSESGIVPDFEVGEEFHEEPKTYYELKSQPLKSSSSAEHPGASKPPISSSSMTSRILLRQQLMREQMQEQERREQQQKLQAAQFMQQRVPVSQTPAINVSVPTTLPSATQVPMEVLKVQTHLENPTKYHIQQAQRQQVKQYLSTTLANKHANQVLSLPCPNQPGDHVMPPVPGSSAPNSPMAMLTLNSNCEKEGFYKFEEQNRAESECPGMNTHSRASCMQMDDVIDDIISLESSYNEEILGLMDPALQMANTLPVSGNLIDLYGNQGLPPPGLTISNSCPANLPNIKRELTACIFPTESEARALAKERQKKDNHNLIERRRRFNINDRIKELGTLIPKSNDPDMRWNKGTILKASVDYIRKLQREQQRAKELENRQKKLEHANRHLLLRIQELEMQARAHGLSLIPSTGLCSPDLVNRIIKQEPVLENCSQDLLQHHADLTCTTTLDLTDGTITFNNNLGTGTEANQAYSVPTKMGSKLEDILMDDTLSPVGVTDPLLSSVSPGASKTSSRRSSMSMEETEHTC

[15] = target: T6, Microphthalmia-associated transcription factor; experiment: reducers of TRPM1 reporter luminescence, concentration series – cell-based, SK-MEL-5, cherry-picked, set 4, MITF inhibitor project, dose response (AID 493102); assay type: functional
[16] = target: T6, Microphthalmia-associated transcription factor; experiment: reducers of TRPM1 reporter luminescence, concentration series – cell-based, SK-MEL-5, cherry-picked, set 3, MITF inhibitor project, dose response (AID 493073); assay type: functional;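 note: SK-MEL-5 melanoma cells with luciferase driven by the MITF target TRPM1 promoter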
[17] = Luminescent dose response cell-based high throughput screening assay for inhibitors of the Janus kinase 2 mutant JAK2V617F. [Related pubchem assays: 1446 (Primary screen.), 1521 (Confirmation assay.), 1486 (Counter screen.)]; assay type: functional
[18] = Intein inhibitors as potential Tuberculosis drugs, a cytotoxicity screen. [Related pubchem assays (depositor defined):AID2221, AID2223, AID434968, AID435010, AID449749, AID449750, AID489010]; assay type: functional
[19] = HEK-293T cell viability reduction – luminescence, B-cell screen hits, cytotoxicity control for BCR NF-kB inhibitor project, dose response (AID 489021); assay type: functional, cell-based;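 note: HEK-293T cells carrying an NF-kB luciferase reporter; cells exposed to compound for about 14 hours before viability readout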
[20] = target: T7, Replicative DNA helicase DnaB (Mycobacterium tuberculosis, UniProt P9WMR3); experiment: DnaB intein splicing inhibitors, dose response, biochemical, cell-free fluorescence (AID 449749); assay type: functional
T7 sequence (P9WMR3 whole entry): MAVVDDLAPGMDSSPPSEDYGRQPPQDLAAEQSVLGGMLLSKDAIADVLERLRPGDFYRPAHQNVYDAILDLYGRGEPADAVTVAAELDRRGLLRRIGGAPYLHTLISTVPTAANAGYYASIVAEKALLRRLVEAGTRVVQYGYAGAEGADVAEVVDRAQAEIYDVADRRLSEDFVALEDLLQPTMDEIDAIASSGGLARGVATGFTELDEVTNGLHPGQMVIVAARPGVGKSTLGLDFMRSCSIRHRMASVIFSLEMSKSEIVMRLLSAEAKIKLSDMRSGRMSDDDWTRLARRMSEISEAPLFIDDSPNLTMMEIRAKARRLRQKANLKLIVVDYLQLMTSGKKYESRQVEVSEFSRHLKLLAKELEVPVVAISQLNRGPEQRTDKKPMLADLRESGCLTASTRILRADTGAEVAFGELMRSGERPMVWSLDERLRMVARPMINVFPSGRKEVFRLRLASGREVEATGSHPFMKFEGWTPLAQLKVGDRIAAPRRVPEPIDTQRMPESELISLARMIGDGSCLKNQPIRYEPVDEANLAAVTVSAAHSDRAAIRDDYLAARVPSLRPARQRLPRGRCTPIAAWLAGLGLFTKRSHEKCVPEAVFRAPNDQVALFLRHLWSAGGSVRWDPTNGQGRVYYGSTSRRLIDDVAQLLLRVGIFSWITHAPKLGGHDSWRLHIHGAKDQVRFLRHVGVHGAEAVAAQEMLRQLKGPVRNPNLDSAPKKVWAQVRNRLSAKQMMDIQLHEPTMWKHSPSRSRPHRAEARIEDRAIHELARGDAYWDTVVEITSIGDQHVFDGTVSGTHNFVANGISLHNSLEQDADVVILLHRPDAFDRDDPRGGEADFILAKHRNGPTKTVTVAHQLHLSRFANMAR

[21] = target: Benomyl/methotrexate resistance protein (Candida albicans, UniProt P28873); experiment: Candida albicans Mdr1 pump inhibition curves – singleplex, Cherry Pick1 hits, dose response (AID 588608); assay type: functional
Sequence of Benomyl/methotrexate resistance protein (P28873 whole entry): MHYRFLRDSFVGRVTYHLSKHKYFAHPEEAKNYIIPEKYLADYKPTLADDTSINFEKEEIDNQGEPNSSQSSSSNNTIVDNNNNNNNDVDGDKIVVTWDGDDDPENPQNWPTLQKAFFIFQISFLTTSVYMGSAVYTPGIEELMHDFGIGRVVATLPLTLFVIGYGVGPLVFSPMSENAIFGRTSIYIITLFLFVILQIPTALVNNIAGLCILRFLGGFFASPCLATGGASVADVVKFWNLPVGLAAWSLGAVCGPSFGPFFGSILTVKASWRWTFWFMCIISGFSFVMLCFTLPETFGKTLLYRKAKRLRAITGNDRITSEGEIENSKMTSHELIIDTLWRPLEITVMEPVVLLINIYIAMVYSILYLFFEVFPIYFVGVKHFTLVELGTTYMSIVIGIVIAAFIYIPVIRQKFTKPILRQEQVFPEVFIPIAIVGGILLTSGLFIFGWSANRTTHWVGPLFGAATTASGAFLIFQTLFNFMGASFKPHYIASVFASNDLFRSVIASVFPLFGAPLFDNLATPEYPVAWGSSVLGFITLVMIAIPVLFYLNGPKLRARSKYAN

Vero = experiment: cells; assay type: functional; details: Chlorocebus sabaeus
[22] = target: Sphingosine 1-phosphate receptor 4 (Homo sapiens, UniProt O95977); experiment: potency of S1P4 activators – cell-based, fluorescence, synthesized compounds, late-stage follow-up (AID 463107); assay type: functional
Sequence of Sphingosine 1-phosphate receptor 4 (O95977 whole entry): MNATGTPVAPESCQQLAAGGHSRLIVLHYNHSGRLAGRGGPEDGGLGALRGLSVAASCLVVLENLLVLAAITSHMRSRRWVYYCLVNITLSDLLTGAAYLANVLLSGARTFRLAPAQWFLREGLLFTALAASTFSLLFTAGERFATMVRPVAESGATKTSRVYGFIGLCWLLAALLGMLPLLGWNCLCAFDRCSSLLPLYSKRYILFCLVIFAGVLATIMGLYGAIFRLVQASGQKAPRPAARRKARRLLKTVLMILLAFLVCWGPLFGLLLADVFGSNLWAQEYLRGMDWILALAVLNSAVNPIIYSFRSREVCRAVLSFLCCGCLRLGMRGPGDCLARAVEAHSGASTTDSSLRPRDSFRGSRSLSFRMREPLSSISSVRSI

Cc1cc(C)c2sc(N(CCCN(C)C)C(=O)c3ccc(S(=O)(=O)N4CCc5ccccc5C4)cc3)nc2c1
EC50 (BJ [1]): 1570 nM (active) | EC50 (BJ [2]): 9560 nM (active) | EC50 (BJ [3]): 2540 nM (inconclusive) | EC50 [4]: 3680 nM (active) | IC50 (Bcl-2-related protein A1): > 20000 nM (inactive) | IC50 [5]: 10000 nM (active) | IC50 [6]: 4640 nM (active) | EC50 [7]: > 100000 nM (inactive)

COc1ccc(C(C(=O)NC2CCCCC2)N(C(=O)CCl)c2cccc(Cl)c2)cc1 (stereo unspecified)
EC50 (BJ [1]): 176 nM (inconclusive) | EC50 [8]: 691 nM (active) | EC50 (BJ [2]): 987 nM (inconclusive) | EC50 [9]: 1360 nM (active) | EC50 [10]: 1090 nM (active) | EC50 (BJ [3]): 4570 nM (active) | EC50 [4]: 518 nM (active) | IC50 [11]: 32 nM (active) | EC50 (BJ [12]): 122 nM (active) | EC50 (Protein RecA): 202 nM (active) | AC50 (Paired box protein Pax-8): < 500 nM (active) | AC50 [13]: 1020 nM (active)

CCCCN=c1nc(S)n(-c2ccccc2)c(C)c1C(C)=O
AC50 [14]: > 350000 nM (inactive) | AC50 [15]: > 350000 nM (inactive) | AC50 [16]: > 350000 nM (inactive)

COc1ccc2nc(C)cc(Sc3nc4ccccc4s3)c2c1
IC50 [17]: 1910 nM (active) | CC50 [18]: 26400 nM (active) | IC50 [19]: > 80000 nM (inactive) | AC50 [20]: 2870 nM (active) | EC50 [21]: 479 nM (active) | EC50 (Protein RecA): 2890 nM (active) | CC50 (Vero): 14300 nM (active)

Cc1ccc(OCCc2ccc(Cl)cc2Cl)c([N+](=O)[O-])n1
EC50 [22]: 2100 nM (active)
